Where “and” joins values, the source holds several entries; their conditions need not be identical. Identical values can stand only once.
Legend:
[1] = Body weight of non-obese rats fed a standard diet; type: in vivo, rat; details: for body weight of rat in g in particular day: standard diet, 5 mg/kg
Procedure: Male Wistar rats (190–220 g) were housed in pairs. The control group (standard diet + vehicle) received vehicle (water, ip), while the test group (standard diet + 4-OH-Guanabenz) was injected (ip) with 4-OH-Guanabenz at a dose of 5 mg/kg b.w. dissolved in water. Body weights were measured daily immediately prior to drug administration.

[2] = Obesity induced with a high-fat diet: body weight; type: in vivo, rat; details: for effect on body weight (in words): vs obese control; for body weight of rat in g in particular day / change of body weight: hight-fat diet; for change of body weight: individual rats
Procedure: The experiments were carried out on male Wistar rats ([…]). Initial body weight was: 140–160 g obesity model or 190–220 g rats in which the obesity model was not induced. The animals were housed in pairs in plastic cages in constant temperature facilities exposed to a light–dark cycle; water and food were available ad libitum. The control and experimental groups consisted of six-to-eight animals each. All experiments were carried out according to the guidelines of the Jagiellonian University Animal Use and Care Committee and were approved for realization (Permissions No. 54/2012 and No. 128/2017).
Male Wistar rats were housed in pairs and fed a high-fat diet consisting of a 40% fat blend (Labofeed B with 40% lard, Morawski, Manufacturer Feed, Poland) for 14 weeks, with water available ad libitum. Control rats were fed a standard diet (Labofeed B, Morawski Manufacturer Feed, Poland). After 10 weeks, rats with obesity-induced via their diet were randomly divided into three equal groups that had the same mean body weight and were treated ip with test compounds at doses of 2 or 5 mg/kg b.w./day (high-fat diet + 4OHGuanabenz) or control group: vehicle–water 0.3 ml/kg (high-fat diet + vehicle = obesity control group) once a day in the morning between 9:00 AM and 10:00 AM for 25 days. Control rats were maintained on a standard diet, with ip administration of vehicle – water (standard diet + vehicle = control group).
The high-fat diet contained 550 kcal and the standard diet 280 kcal per 100 g.

[3] = 5 mg/kg b.w., i.p.; cited from earlier work
TAAR1 = molecular target: T1, TAAR1 (Homo sapiens, UniProt Q96RJ0); parameters: method as in PMID 21525407; details: summary table; cited from earlier work
T1 sequence (Q96RJ0 1-339): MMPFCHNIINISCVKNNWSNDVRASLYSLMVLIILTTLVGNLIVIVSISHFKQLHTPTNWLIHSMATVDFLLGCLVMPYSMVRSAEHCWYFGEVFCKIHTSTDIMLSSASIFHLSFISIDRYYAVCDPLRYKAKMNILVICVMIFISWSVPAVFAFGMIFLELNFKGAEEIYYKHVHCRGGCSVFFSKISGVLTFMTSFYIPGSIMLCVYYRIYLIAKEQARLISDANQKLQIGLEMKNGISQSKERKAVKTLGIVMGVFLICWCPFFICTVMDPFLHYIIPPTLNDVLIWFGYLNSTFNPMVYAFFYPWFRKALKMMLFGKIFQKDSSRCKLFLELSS

[4] = 5 mg/kg b.w., i.p.; cited from earlier work; remark: listed apart in the source
[5] = 5 mg/kg b.w., i.p.; cited from earlier work; remark: listed apart in the source

## Cl.N=C(N)NN=Cc1c(Cl)cc(O)cc1Cl [4-OH-Guanabenz, 2-[(2,6-Dichloro-4-hydroxyphenyl)methylene]hydrazinecarboximidamide Hydrochloride]
[1]; rats fed standard diet, 5 mg/kg b.w. ip
  effect on body weight (in words): No significant effects on body weight
[1]; day 1, individual rats
  body weight of rat in g in particular day: 206 g and 214 g and 229 g and 239 g
[1]; day 2, individual rats
  body weight of rat in g in particular day: 206 g and 217 g and 231 g and 242 g
[1]; day 3, individual rats
  body weight of rat in g in particular day: 203 g and 214 g and 223 g and 240 g
[1]; day 4, individual rats
  body weight of rat in g in particular day: 207 g and 216 g and 230 g and 238 g
[1]; day 5, individual rats
  body weight of rat in g in particular day: 210 g and 220 g and 230 g and 241 g
[1]; day 6, individual rats
  body weight of rat in g in particular day: 212 g and 222 g and 230 g and 241 g
[1]; day 7, individual rats
  body weight of rat in g in particular day: 212 g and 218 g and 231 g and 244 g
[1]; day 8, individual rats
  body weight of rat in g in particular day: 214 g and 212 g and 227 g and 240 g
[1]; day 9, individual rats
  body weight of rat in g in particular day: 210 g (2×) and 222 g and 237 g
[1]; day 10, individual rats
  body weight of rat in g in particular day: 212 g and 215 g and 225 g and 240 g
[1]; day 11, individual rats
  body weight of rat in g in particular day: 213 g and 214 g and 222 g and 239 g
[1]; day 12, individual rats
  body weight of rat in g in particular day: 211 g and 213 g and 224 g and 241 g
[1]; day 13, individual rats
  body weight of rat in g in particular day: 214 g and 212 g and 225 g and 242 g
[1]; day 14, individual rats
  body weight of rat in g in particular day: 215 g and 211 g and 225 g and 239 g
[1]; day 15, individual rats
  body weight of rat in g in particular day: 217 g and 211 g and 224 g and 242 g
[1]; day 16, individual rats
  body weight of rat in g in particular day: 217 g and 213 g and 225 g and 242 g
[1]; day 17, individual rats
  body weight of rat in g in particular day: 218 g and 212 g and 226 g and 243 g
[1]; day 18, individual rats
  body weight of rat in g in particular day: 218 g and 214 g and 227 g and 243 g
[1]; day 19, individual rats
  body weight of rat in g in particular day: 219 g and 214 g and 227 g and 244 g
[1]; day 20, individual rats
  body weight of rat in g in particular day: 220 g and 215 g and 228 g and 244 g
[1]; day 21, individual rats
  body weight of rat in g in particular day: 220 g and 216 g and 228 g and 245 g
[1]; day 22, individual rats
  body weight of rat in g in particular day: 221 g and 216 g and 229 g and 245 g
[1]; day 23, individual rats
  body weight of rat in g in particular day: 221 g and 217 g and 229 g and 246 g
[1]; day 24, individual rats
  body weight of rat in g in particular day: 220 g and 217 g and 230 g and 246 g
[1]; day 25, individual rats
  body weight of rat in g in particular day: 221 g and 218 g and 230 g and 247 g
[2]; high-fat diet rats, 2 mg/kg b.w. ip, 25 days
  effect on body weight (in words): did not cause weight loss, but significantly reduced weight gain
[2]; high-fat diet rats, 5 mg/kg b.w. ip once a day, 25 days
  weight loss compared to the baseline weight before treatment: approximately 14.8%
[2]; high-fat diet rats, 5 mg/kg b.w. ip, 25 days
  effect on body weight (in words): significant decrease in body weight
[2]; 2mg/kg, day 1, individual rats, 2 mg/kg
  body weight of rat in g in particular day: 405 g (3×) and 415 g and 410 g (2×)
[2]; 2mg/kg, day 3, individual rats, 2 mg/kg
  body weight of rat in g in particular day: 405 g (2×) and 410 g and 414 g (2×) and 406 g
[2]; 2mg/kg, day 5, individual rats, 2 mg/kg
  body weight of rat in g in particular day: 409 g (2×) and 411 g and 413 g (2×) and 415 g
[2]; 2mg/kg, day 7, individual rats, 2 mg/kg
  body weight of rat in g in particular day: 408 g (2×) and 414 g and 412 g (2×) and 416 g
[2]; 2mg/kg, day 9, individual rats, 2 mg/kg
  body weight of rat in g in particular day: 406 g (2×) and 414 g and 415 g (2×) and 422 g
[2]; 2mg/kg, day 11, individual rats, 2 mg/kg
  body weight of rat in g in particular day: 412 g (2×) and 413 g and 417 g (2×) and 423 g
[2]; 2mg/kg, day 13, individual rats, 2 mg/kg
  body weight of rat in g in particular day: 409 g (2×) and 418 g and 414 g (2×) and 425 g
[2]; 2mg/kg, day 15, individual rats, 2 mg/kg
  body weight of rat in g in particular day: 410 g (2×) and 422 g and 401 g (2×) and 428 g
[2]; 2mg/kg, day 17, individual rats, 2 mg/kg
  body weight of rat in g in particular day: 412 g (2×) and 422 g and 403 g (2×) and 430 g
[2]; 2mg/kg, day 19, individual rats, 2 mg/kg
  body weight of rat in g in particular day: 412 g (2×) and 424 g and 407 g (2×) and 433 g
[2]; 2mg/kg, day 21, individual rats, 2 mg/kg
  body weight of rat in g in particular day: 415 g (2×) and 429 g and 412 g (2×) and 434 g
[2]; 2mg/kg, day 23, individual rats, 2 mg/kg
  body weight of rat in g in particular day: 408 g (2×) and 434 g and 415 g (2×) and 435 g
[2]; 2mg/kg, day 25, individual rats, 2 mg/kg
  body weight of rat in g in particular day: 405 g (2×) and 432 g and 415 g (2×) and 439 g
[2]; 2mg/kg
  change of body weight: 34 g/25days and 5 g/25days and 0 g/25days and 17 g/25days
[2]; 5mg/kg, day 1, individual rats, 5 mg/kg
  body weight of rat in g in particular day: 378 g and 415 g and 418 g and 409 g and 381 g and 457 g
[2]; 5mg/kg, day 3, individual rats, 5 mg/kg
  body weight of rat in g in particular day: 367 g and 412 g and 410 g and 387 g and 366 g and 443 g
[2]; 5mg/kg, day 5, individual rats, 5 mg/kg
  body weight of rat in g in particular day: 358 g and 396 g and 405 g and 374 g and 360 g and 427 g
[2]; 5mg/kg, day 7, individual rats, 5 mg/kg
  body weight of rat in g in particular day: 344 g and 387 g and 385 g and 364 g and 347 g and 411 g
[2]; 5mg/kg, day 9, individual rats, 5 mg/kg
  body weight of rat in g in particular day: 339 g and 377 g and 376 g and 357 g and 340 g and 394 g
[2]; 5mg/kg, day 11, individual rats, 5 mg/kg
  body weight of rat in g in particular day: 335 g and 372 g and 373 g and 350 g and 340 g and 388 g
[2]; 5mg/kg, day 13, individual rats, 5 mg/kg
  body weight of rat in g in particular day: 326 g and 364 g and 373 g and 348 g and 336 g and 386 g
[2]; 5mg/kg, day 15, individual rats, 5 mg/kg
  body weight of rat in g in particular day: 327 g and 363 g and 377 g and 350 g and 334 g and 384 g
[2]; 5mg/kg, day 17, individual rats, 5 mg/kg
  body weight of rat in g in particular day: 326 g and 362 g and 384 g and 348 g and 331 g and 386 g
[2]; 5mg/kg, day 19, individual rats, 5 mg/kg
  body weight of rat in g in particular day: 327 g and 356 g and 377 g (2×) and 349 g and 333 g
[2]; 5mg/kg, day 21, individual rats, 5 mg/kg
  body weight of rat in g in particular day: 314 g and 353 g and 370 g and 334 g and 328 g and 367 g
[2]; 5mg/kg, day 23, individual rats, 5 mg/kg
  body weight of rat in g in particular day: 310 g and 355 g and 373 g and 342 g and 328 g and 365 g
[2]; 5mg/kg, day 25, individual rats, 5 mg/kg
  body weight of rat in g in particular day: 315 g and 357 g and 378 g and 348 g and 325 g and 370 g
[2]; 5mg/kg
  change of body weight: -56 g/25days and -87 g/25days and -63 g/25days and -58 g/25days and -40 g/25days and -61 g/25days

## N=C(N)N/N=C/c1c(Cl)cccc1Cl [Guanabenz]
[3]
  Spontaneous activity: ↓ [17]
TAAR1
  Intrinsic activity at TAAR1: Agonist [48]
[4]
  Blood pressure after one administration: Change [17]
[5]
  Amount of calories consumed: ↓ [17]
